“Also recorded” adds a separate entry of the source.
How the values were obtained:
[1] = system: human PMNs (killing of a pathogenic strain of E. coli); test: Bacterial killing of E. coli by human PMNs; type: cell-based; details: LPS-stimulated (100 ng/mL) PMNs; pretreatment 1 nM
Protocol: Total, phagocytotic, and NET-mediated extracellular bacterial killing of a pathogenic strain of E. coli by human PMNs±LPS stimulation (100 ng/mL) was assessed, and the results are summarized in FIG. 9. PMNs were also pretreated with CRISPP (1 nM), or a scrambled control peptide control (1 nM). Phagocytotic killing was inhibited with cytochalasin B and D pretreatment (10 μM). NET-mediated killing was inhibited using DNase treatment to dismantle NETs prior to addition of the bacteria.
Bacterial killing efficiency of primary human PMNs was determined as previously described in Yost et al., Blood, 2009, 113: 6419-6427. PMNs were incubated for 30 minutes at 37° C. in 5% CO2/95% air alone or with the phagocytosis inhibitors cytochalasin B and D (10 μM). The leukocytes were then stimulated with LPS (100 ng/mL), placed in poly-L-lysine-coated wells of a 24-well tissue culture plate, and incubated at 37° C. for 1 hour to induce cellular activation and formation of NETs. To inhibit NET-mediated bacterial killing, we incubated selected wells with DNase (40 U/mL) for 15 minutes prior to addition of bacteria. E. coli (1 cfu/100 PMN) were added to the PMNs, followed by continued incubation for 2 hours. The PMNs were then permeabilized with 0.1% Triton-X 100 for 10 minutes and each well was scraped to free all cells. Serial dilutions were performed and bacterial cultures were grown on 5% sheep blood agar plates (HARDY DIAGNOSTICS). After a 24-hour incubation, bacterial counts were determined. Total, phagocytotic, and fractional NET-mediated bacterial killing were determined as described above.

[2] = system: outbred Swiss mice, intraperitoneal injection of E. coli; test: Survival after intraperitoneal E. coli; type: in vivo, mouse
Protocol: FIG. 10B is a graph tracking survival of outbred Swiss mice in various treatment arms following intraperitoneal injection of E. coli (4×10^7 bacteria). As in FIG. […] The same dose, delivery route, and schedule were followed for the scrambled peptide control mice. Here, 10 mice were assessed in each group: no treatment, E. coli plus CRISPP, and E. coli plus scrambled peptide.
Survival of outbred Swiss mice was tracked in various treatment arms following intraperitoneal injection of either LPS (20 mg/kg) or E. coli (4×10^7 bacteria), as shown in FIGS. 10A and 10B. […] The same dose, delivery route, and schedule were followed for the scrambled control peptide control mice. Six mice were assessed in both groups: LPS+CRISPP and LPS+scrambled control peptide. […] Ten mice were assessed in each group: no treatment, E. coli+CRISPP, and E. coli+scrambled control peptide. No antibiotics were given. No deaths occurred in the no treatment group. […] Referring to FIG. 11, CRISPP was also evaluated in a murine model of polymicrobial infection caused by cecal ligation and puncture (CL/P). CL/P was also performed without concomitant antibiotic treatment. Ten mice were assessed in each of the CL/P groups. […]
[…] Survival was assessed over 6 days at 6 hour to 12 hour intervals.

[3] = system: PMNs isolated from healthy adult donors; test: PMN phagocytosis of E. coli BIOPARTICLES; type: cell-based, human; details: 1 nM, 60 minutes pre-incubation, 4 hours
Protocol: PMNs were isolated from blood of healthy adult donors and resuspended in M-199 at a concentration of 2×10^6 cells/mL. Leukocytes were pre-incubated for 60 minutes under standard conditions with cytochalasin B and […] (1 nM), or SCR (1 nM). Following pre-incubation, PMNs were incubated with 6×10^6 E. coli BIOPARTICLES (E-13231, MOLECULAR PROBES) on a rotator for 4 hours under standard conditions. The PMNs were then washed and resuspended in the starting volume in M-199 before being spun down onto glass coverslips and fixed with 2% paraformaldehyde for 10 minutes and permeabilized with 0.1% Triton-X-100 for 10 minutes. Leukocytes were stained with WGA 555 (INVITROGEN) and TO[…] (MOLECULAR PROBES) and randomly selected high power visual field images were captured using confocal microscopy. IMAGE-J software (NIH) was used to determine the percentage of PMNs that were positive for fluorescently labeled E. coli BIOPARTICLES detected at 488 nm.

human platelets = test: Platelet activation (P-selectin expression); type: cell-based; details: given alone or following thrombin stimulation (0.1 IU/mL)
Protocol: Using protocols modified from van Velzen, et al., Thromb Res, 2012, 130: 92-98, human platelets (1×10^8 cells/mL) were incubated with CRISPP or SCR (0.1-10 ng/ml) for 1 hour followed by stimulation with thrombin (0.1 IU/mL) or control M-199 media for 15 minutes. The cells were prepared for FACS analysis with the following primary, monoclonal antibodies for 20 minutes: PE-conjugated CD41a (platelet-specific marker) and FITC-conjugated CD62P (P-selectin). Isotype and fluorochrome matched control antibodies were used. After incubation at room temperature in the dark, the cells were lysed with FACS lysis buffer and analyzed by flow cytometry (BECTON-DICKINSON FACSCAN, CELLQUEST software).

Cancer-Associated SCM-Recognition, Immune Defense Suppression, and Serine Protease Protection Peptide [CRISPP, nNIF-related peptide (nNRP)]
NET-mediated extracellular bacterial killing of E. coli [1]: significantly decreased
Phagocytotic bacterial killing of E. coli [1]: did not alter; also recorded: not different
Total bacterial killing of E. coli [1]: significantly decreased
Survival, post-infection treatment ([2]; CRISPP-Post/E. coli vs SCR-Post/E. coli, peptide 4 hours after infection): approached statistical significance
Survival ([2]; E. coli 4×10^7 IP, 10 mcg/kg/dose IP, 1 hour prior and 6 hours after, vs E. coli+scrambled peptide, p<0.0001): statistically greater
PMN phagocytosis [3]: did not significantly inhibit
Platelet p-selectin expression (human platelets): did not alter

From US10232023B2, “Methods for treatment of and prophylaxis against inflammatory disorders” (THE UNIVERSITY OF UTAH RESEARCH FOUNDATION, priority 2013, dated 2019)
